Assay results: patent US8729091B2, “4-phenoxy-nicotinamide or 4-phenoxy-pyrimidine-5-carboxamide compounds” (Hoffmann-La Roche Inc., priority 2010, dated 2014)

Molecular target: T1, human GPBAR1 receptor (Homo sapiens, UniProt Q8TDU6)
T1 construct: expressed in transfected cells
T1 sequence (Q8TDU6 1-330): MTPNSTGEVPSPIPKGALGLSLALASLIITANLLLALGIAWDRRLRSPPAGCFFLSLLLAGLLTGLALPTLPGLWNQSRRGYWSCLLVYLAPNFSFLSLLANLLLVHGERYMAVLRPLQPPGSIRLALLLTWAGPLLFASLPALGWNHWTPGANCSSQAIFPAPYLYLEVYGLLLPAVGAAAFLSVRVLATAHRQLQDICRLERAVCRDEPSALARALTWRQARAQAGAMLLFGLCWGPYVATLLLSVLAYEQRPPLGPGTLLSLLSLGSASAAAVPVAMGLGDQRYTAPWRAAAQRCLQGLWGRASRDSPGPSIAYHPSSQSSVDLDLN
Assay: functional cAMP assay in CHO-dhfr(minus) cells expressing human GPBAR1 receptors
Format: cell-based
Details: cAMP increase (TR-FRET) in CHO-dhfr(minus) cells expressing human GPBAR1; compounds incubated 30 min at 30° C.
Experimental: The final clone was verified by DNA sequence analysis. The plasmid was transfected into CHO cells deficient in dihydrofolate reductase activity (CHO-dhfr−) using Lipofectamine plus (Invitrogen). Clones were isolated in limited dilution conditions and identified by activities in the cAMP assay using lithocholic acid as agonist.
The growth medium was exchanged with Krebs Ringer Bicarbonate buffer with 1 mM IBMX and incubated at 30° C. for 30 min. Compounds were added to a final assay volume of 100 μl and incubated for 30 min at 30° C. […] The time-resolved energy transfer is measured by a TRF reader (Evotec Technologies GmbH, Hamburg Germany), equipped with a ND:YAG laser as excitation source.
EC50 values were determined using Activity Base analysis (ID Business Solution, Limited). […] Specificity for GPBAR1 was tested in non-transfected CHO cells in the same assay as above.

| Compound | EC50 [nM] |
| --- | --- |
| O=C(c1cnccc1Oc1cc(Cl)ccc1Cl)N1CCCc2cc(F)c(F)cc21 [Example 2, [4-(2,5-Dichloro-phenoxy)-pyridin-3-yl]-(6,7-difluoro-3,4-dihydro-2H-quinolin-1-yl)-methanone] | 100 |
| O=C(c1cnccc1Oc1cc(Cl)ccc1Cl)N1CCNc2ccccc21 [Example 3, [4-(2,5-Dichloro-phenoxy)-pyridin-3-yl]-(3,4-dihydro-2H-quinoxalin-1-yl)-methanone] | 100 |
| CN1CCN(C(=O)c2cnccc2Oc2cc(Cl)ccc2Cl)c2ccccc21 [Example 4, [4-(2,5-Dichloro-phenoxy)-pyridin-3-yl]-(4-methyl-3,4-dihydro-2H-quinoxalin-1-yl)-methanone] | 3 |
| CCOC(=O)C1CC1CN1CCN(C(=O)c2cnccc2Oc2cc(Cl)ccc2Cl)c2ccccc21 (stereo not drawn) [Example 5, 2-{4-[4-(2,5-Dichloro-phenoxy)-pyridine-3-carbonyl]-3,4-dihydro-2H-quinoxalin-1-ylmethyl}-cyclopropanecarboxylic acid ethyl ester] | 1800 |
| O=C(c1cnccc1Oc1cc(Cl)ccc1Cl)N1CCN(CC2CC2)c2ccccc21 [Example 6, (4-Cyclopropylmethyl-3,4-dihydro-2H-quinoxalin-1-yl)-[4-(2,5-dichloro-phenoxy)-pyridin-3-yl]-methanone] | 3 |
| CS(=O)(=O)N1CCN(C(=O)c2cnccc2Oc2cc(Cl)ccc2Cl)c2ccccc21 [Example 7, [4-(2,5-Dichloro-phenoxy)-pyridin-3-yl]-(4-methanesulfonyl-3,4-dihydro-2H-quinoxalin-1-yl)-methanone] | 300 |
| O=C(c1cnccc1Oc1cc(Cl)ccc1Cl)N1CCN(C2CC2)c2cc(Cl)c(F)cc21 [Example 9, (6-Chloro-4-cyclopropyl-7-fluoro-3,4-dihydro-2H-quinoxalin-1-yl)-[4-(2,5-dichloro-phenoxy)-pyridin-3-yl]-methanone] | 50 |
| O=C(c1c[n+]([O-])ccc1Oc1cc(Cl)ccc1Cl)N1CCCc2ccccc21 [Example 10, [4-(2,5-Dichloro-phenoxy)-1-oxy-pyridin-3-yl]-(3,4-dihydro-2H-quinolin-1-yl)-methanone] | 700 |
| O=C(c1cnccc1Oc1cc(Cl)ccc1Cl)N1CCN(C2CC2)c2cc(Cl)ccc21 [Example 11, (6-Chloro-4-cyclopropyl-3,4-dihydro-2H-quinoxalin-1-yl)-[4-(2,5-dichloro-phenoxy)-pyridin-3-yl]-methanone] | 10 |
| COc1ccc(F)cc1N(C)C(=O)c1cnccc1Oc1cc(Cl)ccc1Cl [Example 12, 4-(2,5-Dichloro-phenoxy)-N-(5-fluoro-2-methoxy-phenyl)-N-methyl-nicotinamide] | 100 |
| Cc1ccccc1N(C)C(=O)c1cnccc1Oc1cc(Cl)ccc1Cl [Example 13, 4-(2,5-Dichloro-phenoxy)-N-methyl-N-o-tolyl-nicotinamide] | 200 |
| COc1ccccc1N(C)C(=O)c1cnccc1Oc1cc(Cl)ccc1Cl [Example 14, 4-(2,5-Dichloro-phenoxy)-N-(2-methoxy-phenyl)-N-methyl-nicotinamide] | 100 |
| COc1ncccc1N(C)C(=O)c1cnccc1Oc1cc(Cl)ccc1Cl [Example 15, 4-(2,5-Dichloro-phenoxy)-N-(2-methoxy-pyridin-3-yl)-N-methyl-nicotinamide] | 100 |
| CN(C)c1ccccc1N(C)C(=O)c1cnccc1Oc1cc(Cl)ccc1Cl [Example 16, 4-(2,5-Dichloro-phenoxy)-N-(2-dimethylamino-phenyl)-N-methyl-nicotinamide] | 40 |
| CN(C(=O)c1cnccc1Oc1cc(Cl)ccc1Cl)c1ccccc1N1CCCCC1 [Example 17, 4-(2,5-Dichloro-phenoxy)-N-methyl-N-(2-piperidin-1-yl-phenyl)-nicotinamide] | 1900 |
| CN(C(=O)c1cnccc1Oc1cc(Cl)ccc1Cl)c1cc(C(F)(F)F)cc(C(F)(F)F)c1 [Example 18, N-(3,5-Bis-trifluoromethyl-phenyl)-4-(2,5-dichloro-phenoxy)-N-methyl-nicotinamide] | 1400 |
| COc1cc(F)c(F)cc1N(C)C(=O)c1cnccc1Oc1cc(Cl)ccc1Cl [Example 19, 4-(2,5-Dichloro-phenoxy)-N-(4,5-difluoro-2-methoxy-phenyl)-N-methyl-nicotinamide] | 100 |

| Compound | EC50 [nM] |
| --- | --- |
| CN(C)c1ccc(Cl)cc1N(C)C(=O)c1cnccc1Oc1cc(Cl)ccc1Cl [Example 20, N-(5-Chloro-2-dimethylamino-phenyl)-4-(2,5-dichloro-phenoxy)-N-methyl-nicotinamide] | 400 |
| CNc1cc(F)c(F)cc1N(C)C(=O)c1cnccc1Oc1cc(Cl)ccc1Cl [Example 21, 4-(2,5-Dichloro-phenoxy)-N-(4,5-difluoro-2-methylamino-phenyl)-N-methyl-nicotinamide] | 400 |
| O=C(Nc1cccc2c1NCCC2)c1cnccc1Oc1cc(Cl)ccc1Cl [Example 22, 4-(2,5-Dichloro-phenoxy)-N-(1,2,3,4-tetrahydro-quinolin-8-yl)-nicotinamide] | 900 |
| CN(C)c1ncccc1N(C)C(=O)c1cnccc1Oc1cc(Cl)ccc1Cl [Example 23, 4-(2,5-Dichloro-phenoxy)-N-(2-dimethylamino-pyridin-3-yl)-N-methyl-nicotinamide] | 200 |
| CN(C(=O)c1cnccc1Oc1cc(Cl)ccc1Cl)c1cccc2c1NCCC2 [Example 24, 4-(2,5-Dichloro-phenoxy)-N-methyl-N-(1,2,3,4-tetrahydro-quinolin-8-yl)-nicotinamide] | 100 |
| CN(C(=O)c1cnccc1Oc1cc(Cl)ccc1Cl)c1cc(F)c(Cl)cc1N(C)C1CC1 [Example 25, N-[4-Chloro-2-(cyclopropyl-methyl-amino)-5-fluoro-phenyl]-4-(2,5-dichloro-phenoxy)-N-methyl-nicotinamide] | 1700 |
| O=C(c1cnccc1Oc1cc(Cl)c(Br)cc1Cl)N1CCN(C2CC2)c2ccccc21 [Example 26, [4-(4-Bromo-2,5-dichloro-phenoxy)-pyridin-3-yl]-(4-cyclopropyl-3,4-dihydro-2H-quinoxalin-1-yl)-methanone] | 4 |
| COC(=O)c1cc(Cl)c(Oc2ccncc2C(=O)N2CCN(C3CC3)c3ccccc32)cc1Cl [Example 27, 2,5-Dichloro-4-[3-(4-cyclopropyl-3,4-dihydro-2H-quinoxaline-1-carbonyl)-pyridin-4-yloxy]-benzoic acid methyl ester] | 4 |
| COC(=O)c1cc(Cl)c(Oc2ccncc2C(=O)N2CCN(C3CC3)c3ccccc32)cc1C(=O)OC [Example 28, 4-Chloro-5-[3-(4-cyclopropyl-3,4-dihydro-2H-quinoxaline-1-carbonyl)-pyridin-4-yloxy]-phthalic acid dimethyl ester] | 4 |
| COC(=O)CNC(=O)c1cc(Cl)c(Oc2ccncc2C(=O)N2CCN(C3CC3)c3ccccc32)cc1Cl [Example 29, {2,5-Dichloro-4-[3-(4-cyclopropyl-3,4-dihydro-2H-quinoxaline-1-carbonyl)-pyridin-4-yloxy]-benzoylamino}-acetic acid methyl ester] | 100 |
| O=C(O)CNC(=O)c1cc(Cl)c(Oc2ccncc2C(=O)N2CCN(C3CC3)c3ccccc32)cc1Cl [Example 30, {2,5-Dichloro-4-[3-(4-cyclopropyl-3,4-dihydro-2H-quinoxaline-1-carbonyl)-pyridin-4-yloxy]-benzoylamino}-acetic acid] | 400 |
| COC(=O)CN(C)C(=O)c1cc(Cl)c(Oc2ccncc2C(=O)N2CCN(C3CC3)c3ccccc32)cc1Cl [Example 31, ({2,5-Dichloro-4-[3-(4-cyclopropyl-3,4-dihydro-2H-quinoxaline-1-carbonyl)-pyridin-4-yloxy]-benzoyl}-methyl-amino)-acetic acid methyl ester] | 100 |
| CN(CC(=O)O)C(=O)c1cc(Cl)c(Oc2ccncc2C(=O)N2CCN(C3CC3)c3ccccc32)cc1Cl [Example 32, ({2,5-Dichloro-4-[3-(4-cyclopropyl-3,4-dihydro-2H-quinoxaline-1-carbonyl)-pyridin-4-yloxy]-benzoyl}-methyl-amino)-acetic acid] | 900 |
| CCOC(=O)CCNC(=O)c1cc(Cl)c(Oc2ccncc2C(=O)N2CCN(C3CC3)c3ccccc32)cc1Cl [Example 33, 3-{2,5-Dichloro-4-[3-(4-cyclopropyl-3,4-dihydro-2H-quinoxaline-1-carbonyl)-pyridin-4-yloxy]-benzoylamino}-propionic acid ethyl ester] | 20 |
| O=C(O)CCNC(=O)c1cc(Cl)c(Oc2ccncc2C(=O)N2CCN(C3CC3)c3ccccc32)cc1Cl [Example 34, 3-{2,5-Dichloro-4-[3-(4-cyclopropyl-3,4-dihydro-2H-quinoxaline-1-carbonyl)-pyridin-4-yloxy]-benzoylamino}-propionic acid] | 300 |
| O=C(NCCS(=O)(=O)O)c1cc(Cl)c(Oc2ccncc2C(=O)N2CCN(C3CC3)c3ccccc32)cc1Cl [Example 35, 2-{2,5-Dichloro-4-[3-(4-cyclopropyl-3,4-dihydro-2H-quinoxaline-1-carbonyl)-pyridin-4-yloxy]-benzoylamino}-ethanesulfonic acid] | 100 |
